pEC50: −log10 of the molar value. Where two headings read alike, the source gives them in different places.
Legend:
[1] = tested on: human USP1-UAF1; conditions: cited from earlier work
[2] = target: T1, USP1-UAF1 (Homo sapiens, UniProt O94782); assay: inhibition mechanism determination; assay type: biochemical
[3] = target: T1, USP1-UAF1; assay: reversibility; assay type: biochemical; conditions: 100-fold dilution after treatment at ten times the IC50 for 15, 30 and 60 min
[4] = target: T1, USP1-UAF1; assay: native gel electrophoresis of USP1-UAF1 complex; conditions: up to 100 times its IC50
[5] = target: USP2 (Homo sapiens, UniProt O75604); assay: in vitro DUB selectivity; assay type: biochemical
[6] = target: USP5 (Homo sapiens, UniProt P45974); assay: in vitro DUB selectivity; assay type: biochemical
[7] = target: USP8 (Homo sapiens, UniProt P40818); assay: in vitro DUB selectivity; assay type: biochemical
[8] = target: USP11 (Homo sapiens, UniProt P51784); assay: in vitro DUB selectivity; assay type: biochemical
[9] = target: USP21 (Homo sapiens, UniProt Q9UK80); assay: in vitro DUB selectivity; assay type: biochemical
[10] = target: USP46-UAF1 (Homo sapiens, UniProt P62068); assay: in vitro DUB selectivity; assay type: biochemical
[11] = target: SENP1 (Homo sapiens, UniProt Q9P0U3); assay: in vitro deSUMOylase selectivity; assay type: biochemical
[12] = target: NEDP1 (Homo sapiens, UniProt Q96LD8); assay: in vitro deneddylase selectivity; assay type: biochemical
[13] = tested on: 451 kinases; assay: in vitro kinase profiling; assay type: biochemical
[14] = target: T1, USP1-UAF1; assay: HA-Ub-VME labeling of purified USP1-UAF1; conditions: biochemical assay
[15] = target: USP1 in HEK293T cells (Homo sapiens, UniProt O94782); assay: cellular activity-based DUB profiling with HA-Ub-VME; assay type: cell-based; conditions: 100 μM cisplatin, ML323 0.5 to 50 μM
[16] = tested on: USP8, USP7, CYLD, USP5, USP14, UCH-L3 and UCH-L1 in HEK293T cells; assay: as above; assay type: cell-based, human; conditions: 100 μM cisplatin, ML323 0.5 to 50 μM
[17] = tested on: H596 cells; assay: cellular activity assay of USP1-UAF1; assay type: cell-based, human; conditions: for change in levels of Ub-PCNA and Ub-FANCD2: H596, 6 h, cisplatin 100 μM, ML323 30 μM
[18] = tested on: USP1 shRNA knockdown H596 cells; assay: cellular Ub-PCNA level in USP1 shRNA knockdown cells; assay type: cell-based, human
[19] = tested on: H596 cells; assay: colony-forming assay; assay type: cell-based, human
[20] = tested on: USP1 shRNA knockout H596 cell strain; assay: colony-forming assay in USP1 shRNA cells; assay type: cell-based, human
[21] = tested on: H596 cells; assay: cell cycle analysis; assay type: cell-based, human
[22] = tested on: XPV cells; assay: UV sensitivity colony-forming assay; assay type: cell-based, human; conditions: 20 μM ML323
[23] = tested on: PD20 cells; assay: UV sensitivity colony-forming assay; assay type: cell-based, human; conditions: 20 μM ML323
[24] = tested on: PD20 + D2 cells; assay: UV sensitivity colony-forming assay; assay type: cell-based, human; conditions: with ML323
[25] = tested on: U2OS cells; assay: FANCD2 subnuclear foci formation; assay type: cell-based, human; conditions: ML323 30 μM, cisplatin 5 μM, vehicle 13.1%
[26] = tested on: DR-U2OS cells; assay: HR assay; assay type: cell-based, human; conditions: 30 μM ML323, 2.56% in the absence of ML323
[27] = tested on: U2OS cells; assay: SCE assay; assay type: cell-based, human; conditions: ML323 30 μM, cisplatin 15 μM, control 0.12
[28] = tested on: DUBs in the UCH, OTU and MJD families; assay: in vitro DUB profiling
[29] = target: USP10 (Homo sapiens, UniProt Q14694); assay: in vitro DUB selectivity
[30] = target: USP14 (Homo sapiens, UniProt P54578); assay: in vitro DUB selectivity
[31] = tested on: 70 unrelated proteases; assay: in vitro protease profiling
[32] = tested on: XPV + Polη cells; assay: UV sensitivity colony-forming assay; conditions: 20 μM ML323
[33] = tested on: PD20 + D2 cells; assay: cytotoxicity assay; conditions: PD20 + D2, cisplatin alone
[34] = tested on: H460 cell line; assay: colony-forming assay; conditions: read-out: EC50 of cell killing; cisplatin-sensitive NSCLC H460

T1 sequence (O94782 whole entry): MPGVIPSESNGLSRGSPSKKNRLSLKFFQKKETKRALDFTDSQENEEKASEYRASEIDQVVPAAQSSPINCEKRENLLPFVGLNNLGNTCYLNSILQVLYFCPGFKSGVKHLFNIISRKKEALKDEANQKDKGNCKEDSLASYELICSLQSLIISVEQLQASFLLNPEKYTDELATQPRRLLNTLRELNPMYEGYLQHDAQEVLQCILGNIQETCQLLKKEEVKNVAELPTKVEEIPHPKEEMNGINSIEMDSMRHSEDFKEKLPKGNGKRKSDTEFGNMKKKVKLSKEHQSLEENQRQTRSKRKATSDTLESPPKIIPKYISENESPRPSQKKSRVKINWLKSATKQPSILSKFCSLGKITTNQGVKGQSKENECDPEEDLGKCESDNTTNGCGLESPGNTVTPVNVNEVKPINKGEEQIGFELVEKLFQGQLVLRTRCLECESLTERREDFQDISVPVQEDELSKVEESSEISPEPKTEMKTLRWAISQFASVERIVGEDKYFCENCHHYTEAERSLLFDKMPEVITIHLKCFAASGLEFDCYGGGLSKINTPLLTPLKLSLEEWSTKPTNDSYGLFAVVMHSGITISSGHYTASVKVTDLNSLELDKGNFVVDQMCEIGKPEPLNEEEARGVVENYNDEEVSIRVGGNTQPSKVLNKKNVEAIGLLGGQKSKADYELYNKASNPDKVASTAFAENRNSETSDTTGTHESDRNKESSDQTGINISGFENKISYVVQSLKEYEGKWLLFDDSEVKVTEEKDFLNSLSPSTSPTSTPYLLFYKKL
T1 sequence (Q8TAF3 whole entry partner): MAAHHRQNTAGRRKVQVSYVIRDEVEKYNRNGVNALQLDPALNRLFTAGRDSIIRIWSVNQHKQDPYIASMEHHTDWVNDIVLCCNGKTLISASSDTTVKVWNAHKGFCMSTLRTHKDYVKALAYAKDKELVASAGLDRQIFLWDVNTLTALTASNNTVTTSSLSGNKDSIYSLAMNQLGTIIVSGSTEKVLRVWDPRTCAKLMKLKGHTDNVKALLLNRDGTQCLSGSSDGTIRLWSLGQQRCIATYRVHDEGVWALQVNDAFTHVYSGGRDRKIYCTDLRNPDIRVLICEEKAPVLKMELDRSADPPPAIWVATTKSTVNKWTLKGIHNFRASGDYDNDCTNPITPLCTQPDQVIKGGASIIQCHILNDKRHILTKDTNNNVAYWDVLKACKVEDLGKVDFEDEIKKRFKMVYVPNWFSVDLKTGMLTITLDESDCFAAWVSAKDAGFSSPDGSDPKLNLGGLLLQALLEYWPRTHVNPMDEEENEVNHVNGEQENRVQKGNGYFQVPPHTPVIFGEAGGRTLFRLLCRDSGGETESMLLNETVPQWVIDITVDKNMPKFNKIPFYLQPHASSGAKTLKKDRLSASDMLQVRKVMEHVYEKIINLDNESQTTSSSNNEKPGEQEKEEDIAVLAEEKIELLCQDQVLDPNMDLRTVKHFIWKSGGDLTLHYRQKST
Sequence of USP11 (P51784 whole entry): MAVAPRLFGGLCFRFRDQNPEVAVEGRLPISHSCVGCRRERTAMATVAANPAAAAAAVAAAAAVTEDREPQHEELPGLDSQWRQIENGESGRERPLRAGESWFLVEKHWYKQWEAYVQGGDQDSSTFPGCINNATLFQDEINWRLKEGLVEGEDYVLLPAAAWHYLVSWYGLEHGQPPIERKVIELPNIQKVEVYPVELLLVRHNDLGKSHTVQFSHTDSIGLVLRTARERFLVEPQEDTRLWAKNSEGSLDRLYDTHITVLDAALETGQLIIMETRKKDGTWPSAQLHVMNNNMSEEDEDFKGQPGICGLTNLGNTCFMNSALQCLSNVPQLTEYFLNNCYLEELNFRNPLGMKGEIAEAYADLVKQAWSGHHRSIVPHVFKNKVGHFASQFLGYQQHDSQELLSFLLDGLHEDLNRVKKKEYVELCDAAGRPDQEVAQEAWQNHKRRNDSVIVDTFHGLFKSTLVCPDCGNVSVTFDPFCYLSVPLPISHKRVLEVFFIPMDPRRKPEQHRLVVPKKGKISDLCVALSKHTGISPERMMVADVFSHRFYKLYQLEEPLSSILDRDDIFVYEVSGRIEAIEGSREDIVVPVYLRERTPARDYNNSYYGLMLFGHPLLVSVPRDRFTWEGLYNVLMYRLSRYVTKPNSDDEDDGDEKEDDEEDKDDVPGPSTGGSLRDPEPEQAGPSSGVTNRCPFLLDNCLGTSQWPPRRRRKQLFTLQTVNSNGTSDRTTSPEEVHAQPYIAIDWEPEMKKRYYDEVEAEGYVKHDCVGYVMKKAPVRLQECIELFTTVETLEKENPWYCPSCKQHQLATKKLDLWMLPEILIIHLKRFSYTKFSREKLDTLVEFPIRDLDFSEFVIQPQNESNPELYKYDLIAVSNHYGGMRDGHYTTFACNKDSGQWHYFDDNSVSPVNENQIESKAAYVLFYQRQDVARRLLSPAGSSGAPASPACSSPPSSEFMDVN
Sequence of USP14 (P54578 whole entry): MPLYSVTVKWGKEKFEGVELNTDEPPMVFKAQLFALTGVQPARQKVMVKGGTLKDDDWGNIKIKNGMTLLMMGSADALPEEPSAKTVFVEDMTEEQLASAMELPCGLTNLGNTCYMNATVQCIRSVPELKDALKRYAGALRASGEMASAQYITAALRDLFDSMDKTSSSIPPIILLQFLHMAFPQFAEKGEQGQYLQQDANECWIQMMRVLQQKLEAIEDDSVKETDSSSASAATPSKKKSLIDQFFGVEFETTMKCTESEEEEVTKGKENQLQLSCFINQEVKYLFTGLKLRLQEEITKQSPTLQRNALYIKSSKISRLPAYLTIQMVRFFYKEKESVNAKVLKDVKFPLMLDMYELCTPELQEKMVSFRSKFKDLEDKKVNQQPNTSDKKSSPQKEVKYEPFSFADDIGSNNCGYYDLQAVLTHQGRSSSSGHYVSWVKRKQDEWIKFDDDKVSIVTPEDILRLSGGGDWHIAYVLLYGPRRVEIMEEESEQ
Sequence of USP2 (O75604 259-605): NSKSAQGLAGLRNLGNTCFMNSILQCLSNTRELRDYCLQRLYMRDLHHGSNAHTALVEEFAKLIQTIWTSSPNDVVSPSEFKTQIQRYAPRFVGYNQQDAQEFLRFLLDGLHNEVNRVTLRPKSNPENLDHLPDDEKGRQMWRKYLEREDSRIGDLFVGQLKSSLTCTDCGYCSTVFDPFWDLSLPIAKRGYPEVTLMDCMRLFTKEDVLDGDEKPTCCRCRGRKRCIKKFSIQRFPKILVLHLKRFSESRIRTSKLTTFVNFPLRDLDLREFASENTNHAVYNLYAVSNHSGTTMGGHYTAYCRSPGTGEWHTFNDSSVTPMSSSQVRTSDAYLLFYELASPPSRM
Sequence of USP1 in HEK293T cells (O94782 whole entry): as the sequence (O94782 whole entry) above
Sequence of USP1 in HEK293T cells (Q8TAF3 whole entry partner): as the sequence (Q8TAF3 whole entry partner) above
Sequence of USP5 (P45974 whole entry): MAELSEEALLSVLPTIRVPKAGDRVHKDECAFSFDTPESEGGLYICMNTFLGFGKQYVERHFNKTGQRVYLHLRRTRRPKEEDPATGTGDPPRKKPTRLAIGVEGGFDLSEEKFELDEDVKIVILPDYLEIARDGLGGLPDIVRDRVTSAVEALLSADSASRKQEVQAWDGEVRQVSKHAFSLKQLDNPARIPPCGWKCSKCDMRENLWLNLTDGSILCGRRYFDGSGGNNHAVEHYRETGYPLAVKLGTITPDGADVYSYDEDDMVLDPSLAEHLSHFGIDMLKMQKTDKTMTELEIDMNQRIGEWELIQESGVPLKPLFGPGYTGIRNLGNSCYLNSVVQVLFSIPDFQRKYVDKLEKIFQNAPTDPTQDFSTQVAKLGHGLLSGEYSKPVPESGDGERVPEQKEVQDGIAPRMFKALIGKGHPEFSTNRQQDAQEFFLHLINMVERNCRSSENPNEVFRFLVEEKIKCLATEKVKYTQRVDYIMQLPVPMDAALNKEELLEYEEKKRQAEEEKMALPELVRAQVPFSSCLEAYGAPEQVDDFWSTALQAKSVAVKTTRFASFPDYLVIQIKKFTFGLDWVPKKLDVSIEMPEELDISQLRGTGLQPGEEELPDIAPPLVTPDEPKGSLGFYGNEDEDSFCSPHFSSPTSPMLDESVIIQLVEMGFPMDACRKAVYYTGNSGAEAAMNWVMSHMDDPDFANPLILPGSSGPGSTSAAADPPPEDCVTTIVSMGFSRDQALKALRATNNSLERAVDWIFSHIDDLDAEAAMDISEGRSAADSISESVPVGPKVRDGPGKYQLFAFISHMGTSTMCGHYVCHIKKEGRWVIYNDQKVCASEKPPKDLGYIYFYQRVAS
Sequence of SENP1 (Q9P0U3 whole entry): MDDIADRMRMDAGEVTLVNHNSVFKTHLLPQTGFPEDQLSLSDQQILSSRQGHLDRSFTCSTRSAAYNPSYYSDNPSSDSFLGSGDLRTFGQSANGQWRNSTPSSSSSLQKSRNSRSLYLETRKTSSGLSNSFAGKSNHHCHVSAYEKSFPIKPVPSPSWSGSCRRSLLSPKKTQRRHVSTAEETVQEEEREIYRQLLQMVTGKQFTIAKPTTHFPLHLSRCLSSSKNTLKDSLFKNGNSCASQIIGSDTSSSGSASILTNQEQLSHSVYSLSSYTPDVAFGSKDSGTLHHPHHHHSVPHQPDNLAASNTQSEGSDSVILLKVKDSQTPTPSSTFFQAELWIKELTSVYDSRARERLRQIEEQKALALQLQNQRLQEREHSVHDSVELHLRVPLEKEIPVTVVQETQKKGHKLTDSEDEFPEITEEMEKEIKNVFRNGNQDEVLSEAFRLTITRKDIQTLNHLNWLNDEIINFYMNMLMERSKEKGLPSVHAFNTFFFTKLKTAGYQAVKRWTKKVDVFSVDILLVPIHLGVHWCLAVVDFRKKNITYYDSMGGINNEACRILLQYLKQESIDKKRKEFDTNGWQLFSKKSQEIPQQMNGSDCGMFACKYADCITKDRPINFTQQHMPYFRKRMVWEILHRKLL

CC(C)(Sc1ccc(CCN(CCCCC2CCCCC2)C(=O)NC2CCCCC2)cc1)C(=O)O [GW7647]
affinity as inhibitor of human USP1-UAF1 [1]: low micromolar

Cc1cnc(-c2ccccc2C(C)C)nc1NCc1ccc(-n2ccnn2)cc1 [ML323]
inhibition mechanism ([2]; Lineweaver-Burk, di-Ub cleavage): mixed inhibition mechanism | inhibition constant for the enzyme-substrate complex (K'i) ([2]; mixed inhibition): 183 nM | reversibility of inhibition [3]: reversible inhibitor | disruption of the USP1-UAF1 complex [4]: ruled out the possibility that ML323 acts as a disruptor of the USP1-UAF1 complex | inhibition of USP2 [5]: little to no inhibition | inhibition of USP5 [6]: little to no inhibition | inhibition of USP8 [7]: little to no inhibition | inhibition of USP11 [8]: little to no inhibition | inhibition of USP21 [9]: little to no inhibition | inhibition of USP46-UAF1 [10]: did not inhibit | inhibition of SENP1 [11]: did not inhibit | inhibition of NEDP1 [12]: did not inhibit | inhibition of kinases [13]: no substantial inhibition | labeling of USP1-UAF1 by HA-Ub-VME [14]: inhibited the labeling of USP1-UAF1 by HA-Ub-VME | labeling of cellular USP1 by HA-Ub-VME [15]: clear decrease in the intensity of the labeled USP1 band | labeling of other cellular DUBs by HA-Ub-VME [16]: did not inhibit the labeling of the DUBs tested | change in levels of Ub-PCNA and Ub-FANCD2 [17]: increase in the monoubiquitination of PCNA and FANCD2 was also observed | time to effect on PCNA ubiquitination after treatment ([17]; H596, ML323 alone or in combination with cisplatin): 3 to 6 h | level of Ub-H2A ([17]; H596, ML323 alone or with cisplatin): did not affect the level of Ub-H2A | concentration at which increase in Ub-PCNA level is seen ([17]; H596, absence or presence of cisplatin, 6 h): ≥ 5 µM | Ub-PCNA level, cisplatin vs combination of ML323 and cisplatin [18]: little difference in Ub-PCNA levels | pEC50 ([19]; Homo sapiens, NCI-H596, read-out: EC50 of cell killing): < 5.00 | sensitization to cisplatin [20]: no further sensitization to cisplatin | cell cycle delay or arrest ([21]; H596, ML323 alone 20 μM): did not result in cell cycle delay or arrest | LD50 of UV sensitivity [22]: 3.2 J m^−2 | LD50 of UV sensitivity [23]: 2.8 J m^−2 | LD50 of UV sensitivity [24]: 3.4 J m^−2 | FANCD2 subnuclear foci formation [25]: no substantial change | I-SceI-induced HR frequency [26]: 0.81% | SCE events per chromosome [27]: 0.13 SCE events per chromosome | inhibition of DUBs of UCH, OTU and MJD families [28]: little to no inhibition | inhibition of USP10 [29]: little to no inhibition | inhibition of USP14 [30]: little to no inhibition | inhibition of other proteases [31]: no substantial inhibition | LD50 of UV sensitivity [32]: 4.7 J m^−2 | decrease of UV LD50 vs UV treatment alone [32]: 42%

N.N.[Cl][Pt][Cl] [cisplatin, reference compound]
change in levels of Ub-PCNA and Ub-FANCD2 [17]: small increase | pEC50 ([19]; read-out: EC50 of cell killing, H596, single agent): 6.31 | population of cells in S phase ([21]; H596, cisplatin 5 μM, ML323 20 μM): 45% | FANCD2 subnuclear foci formation [25]: 59.4% | SCE events per chromosome [27]: 0.99 SCE events per chromosome | pEC50 [33]: 4.91 | pEC50 [34]: 7.13

O=c1[nH]c2ccccc2n1C1CCN(CCCC(c2ccc(F)cc2)c2ccc(F)cc2)CC1 [pimozide]
affinity as inhibitor of human USP1-UAF1 [1]: low micromolar
